Converted amounts (≈) assume the structure as drawn.
What was measured:
Enterococcus faecalis [1] = experiment: Antibiotic resistance profile by disc diffusion; type: cell-based; set-up: key: R = resistant; I = intermediate; S = sensitive; conditions: disc diffusion on MHA
Protocol: (§1) The organisms of this study were isolated from human burn patients. They included strains of methicillin resistant Staphylococcus aureus, and vancomycin resistant strains of Pseudomonas aeruginosa and Enterococcus faecalis. The bacterial isolates were propagated in or on Brain Heart Infusion broth (BHI), Mueller-Hinton Broth (MHB), blood agar (BA), Mueller-Hinton agar (MHA), enterococcus agar (EA), or 2× nutrient agar (2×NA).
(§2) Antibiotic resistance profiles were determined by the disc diffusion method on MHA (5).

Pseudomonas aeruginosa [2] = experiment: Antibiotic resistance profile by disc diffusion; type: cell-based; set-up: key: R = resistant; I = intermediate; S = sensitive; conditions: disc diffusion on MHA
Protocol: as §1, §2

Staphylococcus aureus [3] = experiment: Antibiotic resistance profile by disc diffusion; type: cell-based; set-up: key: R = resistant; I = intermediate; S = sensitive; conditions: disc diffusion on MHA
Protocol: as §1, §2

Enterococcus faecalis [4] = experiment: MIC and FIC index, microtiter checkerboard / broth dilution; type: cell-based; conditions: Ent. faecalis; EDTA alone in 50 mM Tris
Protocol: (§3) Agents and Chem. 210-217. (1967) and Sparks et al., Vet. Res. Comm. 18, 241-249 (1994), incorporated herein by reference in their entireties. […] Then 0.05 ml of an 18-hour old culture of a test organism, containing 10^6 colony-forming units (CFU)/ml, was added to each well. Controls for the culture and media were included in each plate. Plates were covered and incubated at 37° Celsius for 18-24 hours. […] To generate isobolograms, FICs of the two test solutions were plotted individually on the x-axis and y-axis to determine the effect of combining the two test solutions on bacterial growth. A line that curves away from, the zero point and the coordinates indicates antagonism. […] A numerical score or fractional inhibitory concentration (FIC) index was determined. The FIC index is equal to the sum of the values of FIC for the individual drugs: […] Am. Soc. Microbiol. Williams and Wilkins, Baltimore 1970), incorporated herein by reference in its entirety. […] Ps. aeruginosa, and Ent. faecalis.

Pseudomonas aeruginosa [5] = experiment: as above; type: cell-based; conditions: Ps. aeruginosa; EDTA alone in 50 mM Tris
Protocol: as §3

Staphylococcus aureus [6] = experiment: as above; type: cell-based; conditions: Staph. aureus; EDTA alone in 50 mM Tris
Protocol: as §3

[7] = tested on: Candidia albicans ATCC 90028; experiment: Antifungal MIC 50 / MIC 90 alone and combined with Tricide; type: cell-based, Candida albicans;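 further: MIC 50 and MIC 90 values are means, and the percent decrease is the drop in MIC when the antifungal is combined with Tricide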
[8] = tested on: Paecilomyces variotti ATCC 36257; experiment: as above; type: cell-based
Aspergillus sp. = experiment: as above; type: cell-based
Fusarium sp. 1 = experiment: microbe, parasite or virus in culture; type: cell-based;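 further: mean MIC 50 and MIC 90 values against fungal isolates, with percent decrease in MIC when the antifungal is combined with Tricide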
Fusarium sp. 2 = experiment: microbe, parasite or virus in culture; type: cell-based
Fusarium sp. 3 = experiment: microbe, parasite or virus in culture; type: cell-based
Penicillium sp. = experiment: Antifungal MIC 50 / MIC 90 alone and combined with Tricide; type: cell-based
Cladosporium sp. = experiment: as above; type: cell-based
Curvularia sp. = experiment: as above; type: cell-based;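 further: antifungal MIC 50 and MIC 90 values against fungal isolates, with percent figures expressing how much the MIC fell once Tricide was added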
[9] = Candida albicans, ATCC90028, Candidia albicans ATCC 90028, antifungal alone
[10] = Paecilomyces variotti ATCC36257
[11] = Paecilomyces variotti, Tricide […]
[12] = Aspergillus sp., Tricide 200 ug/ml
[13] = Aspergillus, Aspergiullus sp., antifungal alone
[14] = Fusarium sp. 1, Tricide 540 ug/ml
[15] = Fusarium sp. 1, antifungal alone
[16] = Curvilaria sp., Tricide 200 ug/ml
[17] = Curvularia sp., antifungal alone

NC[C@H]1O[C@H](O[C@H]2[C@H](O)[C@@H](O[C@H]3O[C@H](CO)[C@@H](O)[C@H](N)[C@H]3O)[C@H](N)C[C@@H]2N)[C@H](O)[C@@H](O)[C@@H]1O [K, kanamycin]
Antibiotic resistance profile (Enterococcus faecalis [1]): R | Antibiotic resistance profile (Pseudomonas aeruginosa [2]): R | Antibiotic resistance profile (Staphylococcus aureus [3]): R

CCn1cc(C(=O)O)c(=O)c2ccc(C)nc21 [NA, nalidixic acid]
Antibiotic resistance profile (Enterococcus faecalis [1]): R | Antibiotic resistance profile (Pseudomonas aeruginosa [2]): R | Antibiotic resistance profile (Staphylococcus aureus [3]): R

O=C(O)CN(CCN(CC(=O)O)CC(=O)O)CC(=O)O [EDTA, ethylenediamenetetracetic acid]
MIC Individually Administered, EDTA (Enterococcus faecalis [4]): 15630 µM | MIC Individually Administered, EDTA (Pseudomonas aeruginosa [5]): 1250 µM | MIC Individually Administered, EDTA (Staphylococcus aureus [6]): 1000 µM

Cc1noc(NS(=O)(=O)c2ccc(N)cc2)c1C [G, sulfisoxazole]
Antibiotic resistance profile (Enterococcus faecalis [1]): R | Antibiotic resistance profile (Pseudomonas aeruginosa [2]): R | Antibiotic resistance profile (Staphylococcus aureus [3]): S

CC(=O)N1CCN(c2ccc(OCC3COC(Cn4ccnc4)(c4ccc(Cl)cc4Cl)O3)cc2)CC1 (stereo not shown) [Ketoconazole, ketoconazole]
MIC50 [7, 9]: 0.0313 µg/mL | MIC90 [7, 9]: > 1 µg/mL | % decrease MIC 50 ([7]; Candida albicans, Tricide […]): 100% | % decrease MIC 90 ([7]; Candida albicans, Tricide […]): 100% | MIC 50 combined with Tricide ([7]; Candida albicans, Tricide […]): 0 µg/mL | Summary % reduction in MIC 50 using Tricide ([7]; Candidia albicans ATCC 90028): 100% | Summary % reduction in MIC 90 using Tricide ([7]; Candidia albicans ATCC 90028): 100% | Summary % reduction in MIC 50 using Tricide [8, 10]: 100% | Summary % reduction in MIC 90 using Tricide [8, 10]: 75% | % decrease MIC 50 [8, 11]: 100% | % decrease MIC 90 [8, 11]: 75% | MIC 50 combined with Tricide [8, 11]: 0 µg/mL | MIC 90 combined with Tricide [8, 11]: 0.25 µg/mL | MIC50 ([8]; Paecilomyces, ATCC36257): 0.0382 µg/mL | MIC90 ([8]; Paecilomyces, ATCC36257): 1 µg/mL | % decrease MIC 50 (Aspergillus sp.; [12]): 87.5% | % decrease MIC 90 (Aspergillus sp.; [12]): 95.8% | MIC 50 combined with Tricide (Aspergillus sp.; [12]): 0.25 µg/mL | MIC 90 combined with Tricide (Aspergillus sp.; [12]): 0.5 µg/mL | MIC50 (Aspergillus sp.; [13]): 2 µg/mL | MIC90 (Aspergillus sp.; [13]): 12 µg/mL | Summary % reduction in MIC 50 using Tricide (Aspergillus sp.; Aspergiullus sp.): 87.5% | Summary % reduction in MIC 90 using Tricide (Aspergillus sp.; Aspergiullus sp.): 95.8% | Summary % reduction in MIC 50 using Tricide (Fusarium sp. 1; Fasarium sp. 1): >99.9%-100% | Summary % reduction in MIC 90 using Tricide (Fusarium sp. 1; Fasarium sp. 1): 99.9%-100% | % decrease MIC 50 (Fusarium sp. 1; [14]): >99.9-100% ^ | % decrease MIC 90 (Fusarium sp. 1; [14]): 99.9-100%^ | MIC 90 combined with Tricide (Fusarium sp. 1; [14]): 0 to 0.05 µg/mL | MIC50 (Fusarium sp. 1; [15]): > 128 µg/mL | MIC90 (Fusarium sp. 1; [15]): > 128 µg/mL | Summary % reduction in MIC 50 using Tricide (Fusarium sp. 2): >99.5%-100% | Summary % reduction in MIC 90 using Tricide (Fusarium sp. 2): 99.9%-100% | % decrease MIC 50 (Fusarium sp. 2; Tricide 540 ug/ml): >99.5-100% ^ | % decrease MIC 90 (Fusarium sp. 2; Tricide 540 ug/ml): >99.9-100% ^ | MIC50 (Fusarium sp. 2; antifungal alone): 11.2 µg/mL (≈ 21.1 µM) | MIC90 (Fusarium sp. 2; antifungal alone): 64 µg/mL (≈ 120 µM) | Summary % reduction in MIC 50 using Tricide (Fusarium sp. 3): 100% | Summary % reduction in MIC 90 using Tricide (Fusarium sp. 3): 100% | % decrease MIC 50 (Fusarium sp. 3; Tricide 540 ug/ml): 100% | % decrease MIC 90 (Fusarium sp. 3; Tricide 540 ug/ml): 100% | MIC 50 combined with Tricide (Fusarium sp. 3; Tricide 540 ug/ml): 0 µg/mL | MIC 90 combined with Tricide (Fusarium sp. 3; Tricide 540 ug/ml): 0 µg/mL | MIC50 (Fusarium sp. 3; antifungal alone): > 128 µg/mL | MIC90 (Fusarium sp. 3; antifungal alone): > 128 µg/mL | Summary % reduction in MIC 50 using Tricide (Penicillium sp.): 100% | Summary % reduction in MIC 90 using Tricide (Penicillium sp.): 100% | % decrease MIC 50 (Penicillium sp.; Tricide 200 ug/ml): 100% | % decrease MIC 90 (Penicillium sp.; Tricide 200 ug/ml): 100% | MIC 50 combined with Tricide (Penicillium sp.; Tricide 200 ug/ml): 0 µg/mL | MIC 90 combined with Tricide (Penicillium sp.; Tricide 200 ug/ml): 0 µg/mL | MIC50 (Penicillium sp.; antifungal alone): 0.181 µg/mL | MIC90 (Penicillium sp.; antifungal alone): 0.5 µg/mL | Summary % reduction in MIC 50 using Tricide (Cladosporium sp.): 75% | Summary % reduction in MIC 90 using Tricide (Cladosporium sp.): 94% | % decrease MIC 50 (Cladosporium sp.; Tricide 200 ug/ml): >75% | % decrease MIC 90 (Cladosporium sp.; Tricide 200 ug/ml): 94% | MIC 90 combined with Tricide (Cladosporium sp.; Tricide 200 ug/ml): 0.125 µg/mL | MIC50 (Cladosporium sp.; antifungal alone): 0.5 µg/mL | MIC90 (Cladosporium sp.; antifungal alone): 2 µg/mL | % decrease MIC 50 (Curvularia sp.; [16]): 96.3-100%^ | % decrease MIC 90 (Curvularia sp.; [16]): 74-100% ^ | MIC 50 combined with Tricide (Curvularia sp.; [16]): 0 to 0.0250 µg/mL | MIC 90 combined with Tricide (Curvularia sp.; [16]): 0 to 0.4 µg/mL | Summary % reduction in MIC 50 using Tricide (Curvularia sp.; Curvularia sp.): 96.3%-100% | Summary % reduction in MIC 90 using Tricide (Curvularia sp.; Curvularia sp.): 74%-100% | MIC50 (Curvularia sp.; [17]): 0.667 µg/mL | MIC90 (Curvularia sp.; [17]): 1.56 µg/mL
